Legend:
[1] = test system: Aedes aegypti (mosquito adults); assay: Pest toxicity test; assay type: in vivo; settings: 0.01% by weight; plywood; 1 day
Erwinia carotovora = assay: Antibacterial agar test (B4); assay type: cell-based; settings: 50 ppm; 5 days
Xanthomonas malvacearum = assay: Antibacterial agar test (B3); assay type: cell-based; settings: 50 ppm; 5 days
Outline: (§1)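 Compound was dissolved or suspended in acetone and mixed into nutrient agar to 50 ppm final, then dried overnight in Petri dishes. Plates were inoculated with the bacteria via multipoint inoculator and antibacterial activity was graded after 5 days.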

[2] = test system: Meloidogyne incognita (nematodes); assay: Pest toxicity test; assay type: in vivo; settings: 0.01% by weight; water; 1 day
Aphis fabae = assay: Pest toxicity test; assay type: in vivo; settings: 0.1% by weight; broad bean; 2 days
[3] = test system: Tetranychus telarius (red spider mites, adults); assay: Pest toxicity test; assay type: in vivo; settings: 0.1% by weight; French bean; 3 days
Megoura viceae = assay: Pest toxicity test; assay type: in vivo; settings: 0.1% by weight; broad bean; 2 days
[4] = test system: Plasmopara viticola (vine); assay: Fungicidal test against foliar disease C (foliage spray plus soil drench); assay type: in vivo; settings: 100 ppm spray and drench; 10 days
Wheat = assay: Herbicidal test, pre- and post-emergence; assay type: in vivo; settings: 10 kg/ha; scale 0 to 3 (complete kill)
[5] = test system: Plutella maculipennis (diamond back moth larvae); assay: Pest toxicity test; assay type: in vivo; settings: in vivo
Tomato = assay: Herbicidal test, pre- and post-emergence; assay type: in vivo; settings: 10 kg/ha; scale 0 to 3 (complete kill)
[6] = test system: Corynebacterium michiganense; assay: Antibacterial agar test (B2); assay type: cell-based; settings: 50 ppm; 5 days
Outline: as §1

Uncinula necator (vine) = assay: Fungicidal test against foliar disease D (foliage spray plus soil drench); assay type: in vivo; settings: 100 ppm spray and drench; 10 days
[7] = test system: Pieris brassicae (cabbage white caterpillars); assay: Pest toxicity test; assay type: in vivo; settings: 0.1% by weight, 2 days
[8] = test system: Phaedon cochleariae (mustard beetles); assay: Pest toxicity test; assay type: in vivo; settings: in vivo
[9] = test system: Musca domestica (houseflies); assay: Pest toxicity test, contact test; assay type: in vivo; settings: 0.1% by weight; milk/sugar; 2 days; flies sprayed directly
[10] = test system: Aedes aegypti (mosquito larvae); assay: Pest toxicity test; assay type: in vivo; settings: 0.01% by weight; water; 1 day
[11] = test system: Agrobacterium tumifaciens; assay: Antibacterial agar test (B1); assay type: cell-based; settings: 50 ppm; 5 days
Maize = assay: Herbicidal test, pre- and post-emergence; assay type: in vivo; settings: 10 kg/ha; scale 0 to 3 (complete kill)
Streptomyces scabies = assay: Antibacterial agar test (B7); assay type: cell-based; settings: 50 ppm; 5 days
[12] = test system: Agriolimax reticulatus (slugs); assay: Molluscicidal activity test; assay type: in vivo, Agriolimax reticulatus (Mull); settings: pellet with 4% by weight; 6 days; 10°C
Outline: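 Compound was applied to a calf feeding pellet at 4% by weight active ingredient after 24 h air drying. Two replicates, each of 2 slugs starved 24 h, were kept with a moist filter paper at 10°C, and kill was assessed after 6 days.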

Xanthomonas oryzae = assay type: cell-based; settings: 50 ppm; 5 days
Pseudomonas syringae = assay: Antibacterial agar test (B6); assay type: cell-based; settings: 50 ppm; 5 days
Lettuce = assay: Herbicidal test, pre- and post-emergence; assay type: in vivo; settings: 10 kg/ha; scale 0 to 3 (complete kill)

O=[N+]([O-])c1cc(Cl)cc([N+](=O)[O-])c1Nc1c(Cl)c(F)nc(F)c1Cl [Compound 29, 3,5-Dichloro-2,6-difluoro-4(4-chloro-2,6-dinitroanilino)pyridine]
Mortality grading (kill) [1]: 0 (O represents less than 30% kill)
Antibacterial activity grading B4 (Erwinia carotovora): 3 (0 to 5)
Antibacterial activity grading B3 (Xanthomonas malvacearum): 3 (0 to 5)
Mortality grading (kill) [2]: 0 (O represents less than 30% kill)
Mortality grading (kill) (Aphis fabae): 3 (3 represents over 90% kill)
Mortality grading (kill) [3]: 3 (3 represents over 90% kill)
Mortality grading (kill) (Megoura viceae): 3 (3 represents over 90% kill)
Amount of disease grading, disease C (Table 4) [4]: 3 (0 to 5)
Damage to plants, post-emergence (Wheat): 0
Damage to plants, pre-emergence (Wheat): 3
Mortality grading (kill) [5]: 0 (key: O represents less than 30% kill; 1 represents 30 - 49% kill; 2 represents 60 - 90% kill; 3 represents over 90% kill; C indicates a chemosterilant effect.; A indicates an antifeeding effect.)
Damage to plants, post-emergence (Tomato): 0
Damage to plants, pre-emergence (Tomato): 3
Antibacterial activity grading B2 [6]: 3 (0 to 5)
Amount of disease grading, disease D (Table 4) (Uncinula necator (vine)): 3 (0 to 5)
Mortality grading (kill) [7]: 0 (O represents less than 30% kill)
Mortality grading (kill) [8]: 0 (key: O represents less than 30% kill; 1 represents 30 - 49% kill; 2 represents 60 - 90% kill; 3 represents over 90% kill; C indicates a chemosterilant effect.; A indicates an antifeeding effect.)
Mortality grading (kill), contact test [9]: 0 (O represents less than 30% kill)
Mortality grading (kill) [10]: 3 (3 represents over 90% kill)
Antibacterial activity grading B1 [11]: 3 (0 to 5)
Damage to plants, post-emergence (Maize): 0
Damage to plants, pre-emergence (Maize): 0
Antibacterial activity grading B7 (Streptomyces scabies): 3 (0 to 5)
% Kill of slugs [12]: 50%
Antibacterial activity grading B5 (Xanthomonas oryzae): 3 (0 to 5)
Antibacterial activity grading B6 (Pseudomonas syringae): 3 (0 to 5)
Damage to plants, post-emergence (Lettuce): 0
Damage to plants, pre-emergence (Lettuce): 3

— patent publication US3965109A, “Certain aryl amino pyridines” (priority 1971, dated 1976)
